Data on five compounds can be found in PubChem BioAssay AID1963851 (Molecular Pharmacology Branch, DTP, NCI, 2024).

Values joined by “and” are separate entries in the source; they are usually repeats but may differ in a detail not shown here. Equal values may be shown once.

One may read the IC50 as the concentration that gives 50% inhibition. What is called viability, T/C is the result in the treated group divided by that in the control group, in per cent.

This test has as its system 188146-221-R-J1-PDC complex spheroid viability. As to the kind of experiment: Anticancer human tumor 188146-221-R-J1-PDC patient-derived colon adenocarcinoma cell line growth inhibition [POLQ]. The conditions noted are these: for viability, T/C: stronger effect = lower value. The method, then: Multicellular complex tumor spheroid response to Polymerase (POL) inhibitors (novobiocin, ART-558, RP6685) in combination with a variety of drugs and investigational agents in selected tumor cell lines
The POL inhibitors (novobiocin, ART-558, and RP6685) were evaluated both individually and in combination with standard of care and investigational anticancer small molecules within a complex spheroid model of solid tumors. . Complex spheroids include a stromal component modeled by human endothelial cells (HUVEC) and fibroblasts modeled by human mesenchymal stem cells (MSCs). The concentration ranges selected for each drug and investigational agent were based upon clinically achievable concentrations if the clinical Cmax of the agent was known.
Compounds. The drugs and investigational agents: novobiocin (NSC847541), ART-558 (NSC835418), RP-6685 (NSC848927), peposertib (NSC802822), ceralasertib (NSC780249), elimusertib (NSC800525), camonsertib (NSC841442), AZD-1390 (NSC803789), olaparib (NSC753686), talazoparib (NSC767125), rucaparib (NSC756644), sotorasib (NSC818433), MRTX-1133 (NSC836407), SN-38 (NSC673596), topotecan (NSC609699), epotoside (NSC141540), doxorubicin (NSC123127), gemcitabine (NSC613327), 5-fluorouracil (NSC19893), paclitaxel (NSC125973), vemurafenib (NSC761431), MSA-2 (NSC828583), SN-011 (NSC837082), adavosertib (NSC754352), prexasertib (NSC758257), carboplatin (NSC241240) and oxaliplatin (NSC266046), were obtained from the National Cancer Institute (NCI) Developmental Therapeutics Program Chemical Repository (21). The FDA-approved anticancer drug set is available from the Developmental Therapeutics Program at https://dtp.cancer.gov/organization/dscb/obtaining/. […] The stock solutions were prepared in dimethyl sulfoxide (DMSO, Sigma-Aldrich, St. Louis, MO, cat. D2650), except for the platinum compounds which were prepared in saline (Quality Biological, Gaithersburg, MD, cat. 114-055-101), at 800-fold the tested concentration and stored at -70 degrees C prior to their use. All drugs and investigational agents were tested over a range starting from a high concentration at or near the clinical Cmax and decreasing in half-log increments. If the clinical Cmax for an agent had not been determined, the highest concentration tested was 10 microM, except for SN-38, which was tested at a high concentration of 1 microM.
Cell Culture. All cells were maintained in an incubator at 37 degrees C and 5% CO2 with 95% humidity. The PDC lines were cultured according to standard operating procedures established by the NCI PDMR (https://pdmr.cancer.gov). Table 3 of the manuscript, lists the cell lines along with the number of the three cell types plated to form the mct-spheroids and media for tumor cell growth. After thawing, all PDC lines, except 997537-175-T-J1-PDC and 415267-285-R-J2-PDC, were cultured in Matrigel-coated flasks prepared with a working solution of 1X Ham's F-12 nutrient mix, without supplementation (Thermo Fisher Scientific, cat. 11765054), 100 U/mL penicillin-streptomycin (Thermo Fisher Scientific, cat. 15140122), and 2.5% Matrigel (Corning Inc., Corning, NY, cat. 354248) for the first three passages. The two PDC lines 997537-175-T-J1-PDC and 415267-285-R-J2-PDC were cultured on uncoated flasks. The 857933-349-R-J2-PDC line was cultured in 6C/Colon 1B media containing advanced DMEM/F-12 (Thermo Fisher Scientific, cat. 12634028), 10 mM HEPES (Thermo Fisher Scientific, cat. 15630080), 1X GlutaMAX supplement (Thermo Fisher Scientific, cat. 35050061), 0.1 mg/mL primocin (InvivoGen, San Diego, CA, cat. ant-pm-2), 10% defined fetal bovine serum, heat inactivated (HyClone Laboratories Inc., Logan, UT, cat. SH30070.03HI), 50% L-WRN conditioned media (ATCC, cat. CRL-3276), 1.25 mM N-Acetyl-L-cysteine (Sigma-Aldrich, cat. A9165), 10 mM nicotinamide (Sigma-Aldrich, cat. N0636), 1X B-27 supplement (Thermo Fisher Scientific, cat. 17504044), 1X N-2 supplement (Thermo Fisher Scientific, cat. […]
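Also: spheroids exposed to compounds for seven days.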

In the case of `CNCc1ccc(-c2[nH]c3cc(F)cc4c3c2CCNC4=O)cc1` + COC1C(OC(N)=O)C(O)C(Oc2ccc3c(O)c(NC(=O)c4ccc(O)c(CC=C(C)C)c4)c(=O)oc3c2C)OC1(C)C, the IC50 by setting is: (curve of first compound, second compound 0.0316 µM) more than 10000 nM; (curve of first compound, second compound 0.1 µM) more than 10000 nM; (curve of first compound, second compound 0.316 µM) more than 10000 nM; (curve of first compound, second compound 1 µM) more than 10000 nM; (curve of first compound, second compound 3.16 µM) more than 10000 nM; (curve of first compound, second compound 10 µM) more than 10000 nM. Besides, the viability, T/C is 111% (second compound 0.0316 µM, first compound 0.0316 µM); 98.3% (second compound 0.0316 µM, first compound 0.1 µM); 109% (second compound 0.0316 µM, first compound 0.316 µM); 102% (second compound 0.0316 µM, first compound 1 µM); 103% (second compound 0.0316 µM, first compound 3.16 µM); 96.5% (second compound 0.0316 µM, first compound 10 µM). The viability, T/C (second compound 0.1 µM, first compound 0.0316 µM) is 118%; the viability, T/C (second compound 0.1 µM, first compound 0.1 µM) was 104%; the viability, T/C (second compound 0.1 µM, first compound 0.316 µM) was 106%; the viability, T/C (second compound 0.1 µM, first compound 1 µM) is 99.6%; the viability, T/C (second compound 0.1 µM, first compound 3.16 µM) was 102%; the viability, T/C (second compound 0.1 µM, first compound 10 µM) is 117%. Besides, the viability, T/C is, setting by setting: (second compound 0.316 µM, first compound 0.0316 µM) 106%; (second compound 0.316 µM, first compound 0.1 µM) 101%; (second compound 0.316 µM, first compound 0.316 µM) 102%; (second compound 0.316 µM, first compound 1 µM) 111%; (second compound 0.316 µM, first compound 3.16 µM) 112%; (second compound 0.316 µM, first compound 10 µM) 104%. For the same compound, the viability, T/C (second compound 1 µM, first compound 0.0316 µM) was 108%; the viability, T/C (second compound 1 µM, first compound 0.1 µM) is 110%; the viability, T/C (second compound 1 µM, first compound 0.316 µM) was 106%; the viability, T/C (second compound 1 µM, first compound 1 µM) was 105%; the viability, T/C (second compound 1 µM, first compound 3.16 µM) was 99.5%; the viability, T/C (second compound 1 µM, first compound 10 µM) was 115%. Besides, the viability, T/C reads like this: (second compound 3.16 µM, first compound 0.0316 µM) 98.1%; (second compound 3.16 µM, first compound 0.1 µM) 99.8%; (second compound 3.16 µM, first compound 0.316 µM) 106%; (second compound 3.16 µM, first compound 1 µM) 101%; (second compound 3.16 µM, first compound 3.16 µM) 111%; (second compound 3.16 µM, first compound 10 µM) 107%. In addition, the viability, T/C by setting is: (second compound 10 µM, first compound 0.0316 µM) 111%; (second compound 10 µM, first compound 0.1 µM) 103%; (second compound 10 µM, first compound 0.316 µM) 110%; (second compound 10 µM, first compound 1 µM) 93.2%; (second compound 10 µM, first compound 3.16 µM) 117%; (second compound 10 µM, first compound 10 µM) 121%.

As to `Cn1ncnc1[C@H]1c2n[nH]c(=O)c3cc(F)cc(c23)N[C@@H]1c1ccc(F)cc1`, the viability, T/C reads like this: (compound 0.000316 µM) 102% and 97.5% and 109%; (compound 0.001 µM) 112% and 93.3% and 103%; (compound 0.00316 µM) 89.9% and 107% and 95.2%; (compound 0.01 µM) 99.5% and 108% and 103%; (compound 0.0316 µM) 104% and 87% and 114%; (compound 0.1 µM) 95.4% and 95.5% and 82.1%. The IC50 (curve of compound) is more than 100 nM.

As to `CCc1c2c(nc3ccc(O)cc13)-c1cc3c(c(=O)n1C2)COC(=O)[C@]3(O)CC`, the viability, T/C reads like this: (compound 0.00316 µM) 98.1% and 104% and 88.5%; (compound 0.01 µM) 73.8% and 73.1% and 74.3%; (compound 0.0316 µM) 35.4% and 45.1% and 29.7%; (compound 0.1 µM) 18% and 23.1% and 19.6%; (compound 0.316 µM) 12% and 12.2% and 13.3%; (compound 1 µM) 6.11% and 8.93% and 6.3%. Further, where the note is “curve of compound”, the IC50 was 20.9 nM and 25.1 nM and 19 nM.

For `O=c1[nH]cc(F)c(=O)[nH]1`, the viability, T/C was 102% and 101% and 107% (compound 0.0316 µM); 95.6% and 97.8% and 103% (compound 0.1 µM); 66.6% and 74% and 69.3% (compound 0.316 µM); 59.6% and 61.5% and 58.3% (compound 1 µM); 44.9% and 51.3% and 45.6% (compound 3.16 µM); 31.6% and 43.5% and 31.8% (compound 10 µM). The half-inhibitory concentration (IC50) (curve of compound) was 1830 nM and 3020 nM and 1680 nM.

For `COc1cc(C2c3cc4c(cc3C(OC3OC5COC(C)OC5C(O)C3O)C3COC(=O)C23)OCO4)cc(OC)c1O` (stereo not given), the viability, T/C by setting is: (compound 0.0316 µM) 115% and 92.4% and 98.7%; (compound 0.1 µM) 102% and 84.8% and 107%; (compound 0.316 µM) 77% and 71.8% and 65.6%; (compound 1 µM) 51.8% and 43.3% and 50.5%; (compound 3.16 µM) 30.1% and 27.2% and 24.4%; (compound 10 µM) 23.1% and 24.8% and 25%. Also, for the setting “curve of compound”, the IC50 is 1030 nM and 758 nM and 789 nM.
